According to US5840740A, “Aminosterol compounds and a method of treating infection using the aminosterol compounds” (priority 1995, dated 1998):
“Also recorded” adds a separate entry of the source.

Columns and labels:
rabbit NHE1 = test: pH recovery in PS120 fibroblasts transfected with rabbit NHE1; assay type: cell-based; details: 5 μg/ml; acid-preloaded
Method: (§1) PS120 fibroblasts transfected with rabbit or human NHE1 were grown as described above.

human NHE1 = test: pH recovery in PS120 fibroblasts transfected with human NHE1; assay type: cell-based; details: 5 μg/ml; acid-preloaded
Method: as §1

[1] = tested on: bovine pulmonary endothelial cells; test: Growth inhibition of endothelial cells in vitro; assay type: cell-based; details: 1 μg/ml; absorbance at 600 nm
[2] = tested on: human epithelial cell line MCF 10A; test: Growth inhibition of epithelial cells in vitro; assay type: cell-based; details: 10 μg/ml; absorbance at 600 nm
[3] = tested on: human foreskin fibroblasts; test: Growth inhibition of fibroblasts in vitro; assay type: cell-based; details: 10 μg/ml; absorbance at 600 nm
[4] = tested on: human microvascular cells; test: Inhibition of endothelial cell cord formation in vitro; assay type: cell-based; details: at cord formation-inhibiting concentrations
Description: Endothelial cells have the capacity in vitro to form tubular aggregates resembling capillaries in various early stages of formation. This conversion occurs under relatively specific conditions, in which essential growth factors along with an effective substratum are provided. It has been shown that both the interaction of growth factors with the endothelial cell and its attachment to a substratum activate the NHE. The activation of this exchanger is believed to be required for subsequent morphologic transformation of the endothelial cell into a multicellular tubular structure.
To assess the effect of compounds on the cord-like structures formed by human microvascular cells when plated in the presence of VEFG (Vascular Endothelial Growth Factor) and basic fibroblast growth factor on a collagen matrix, a standard cord formation assay was used.

chorioallantoic membrane = test: Chorioallantoic membrane (CAM) model; assay type: in vivo, chick; details: for Percentage positive, Assay 1 / Percentage positive, Assay 2: 3-day embryo, some vascular irritation noted
Description: The growing capillaries within the chorioallantoic membrane model (CAM model) have been used as a system in which to evaluate the effect of agents on their potential to inhibit new vessel growth. Neovascularization occurs most aggressively over the first week of embryonic development. Thereafter capillary growth is characterized by principally "elongation" rather than "de novo" formation.
In the standard assay, agents are applied locally to a region of the embryo over which neovascularization will occur. Agents are assessed by their ability to inhibit this process, as evaluated by visual examination about 7 days after application. […] The assay utilized is described in detail in Auerbach et al., Pharm. Ther. 51, 1991, 1-11.

[5] = tested on: chick embryo vitelline capillaries; test: Chick embryo vitelline capillary regression assay; assay type: in vivo; design: key to vascular reactivity (capillary regression): +: Vascular reactivity; 0: No vascular reactivity; +/-: Equivocal reactivity; details: for vascular reactivity (capillary regression): 60 min
Outline: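 Each compound was applied onto 3-day chick embryos in 0.1 ml 15% Ficol 400 in PBS. Regression of vitelline capillaries was scored visually after 60 minutes.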

B16 melanoma = B16 melanoma growth in C57B mice; assay type: in vivo, mouse
Method: The growth of B16 melanoma in C57B mice is dependent upon neovascularization.
Using the growth of B16 melanoma cells in C57B mice, a recognized model for the evaluation of inhibitors of angiogenesis on the growth of cancers, the effects of subcutaneous, intraperitoneal and oral administration of squalamine were evaluated.
In this model, there was observed little evidence of metastasis with or without treatment with chemotherapeutic agents.
Based on the idea that tumor growth involves both the clonal expansion of a malignant cell along with the development of a supporting vascular supply, a combination of compound 1436 with squalamine was tested to determine whether it would achieve a synergistic effect on solid tumor growth. This concept was evaluated in the B16 melanoma model.
Animals were implanted with B16 melanoma followed by treatment with compound 1436 or 1256 administered in a combined schedule or separately. […] Thus, a combination of these two compounds achieves a therapeutic benefit in tumors dependent on neovascularization that may prevent metastatic spread.

melanoma 1205Lu = test: Human melanoma growth in immunocompromised RAG-1 mice; assay type: in vivo, human tumor in RAG-1 mice; details: 10, 20, 40 mg/kg/d (FIG. 5)
Description: As apparent from FIG. 5, melanoma 1205Lu develops aggressively in RAG-1 mice after implantation.

[6] = tested on: PHA-stimulated human lymphocytes; test: Inhibition of mitogen (PHA)-stimulated growth of human T-cells; assay type: cell-based; details: in words; 10 μg/ml
Description: Results are tabulated below.

[7] = Fasting blood glucose in mice; assay type: in vivo, mouse (male CD-1); details: 2 x 10 mg/kg i.v. (total 20 mg/kg), 30 min after 2d dose; in H2O (1437, 1256) or D5W (1436)
Method: To study the effect of steroid administrator or the NHE responsible for secretion of insulin, several of the aminosterols from shark liver were administered to fasting mice. Male CD-1 mice were assigned to one of four treatment groups. Whole blood glucose was tested using glucometer (Lifescan Glucometer II and One Touch test strips). Statistical analysis was via one-way analysis of variance (ANOVA) followed by subsequent Bonferonni's t-test.

[8] = tested on: human coronary artery smooth muscle; test: Proliferation of human coronary artery smooth muscle in vitro; assay type: cell-based; details: in words (1436: about 11 μg/ml)
Description: Aminosterols of the invention may also have utility in inhibiting the growth factor mediated proliferation of smooth muscle within the artery. Following coronary angioplasty, reocclusion commonly occurs, secondary to reparative proliferation of the vascular smooth muscle within the wall of the surgically manipulated blood vessel. This process generally takes place over the course of 7-10 days. To evaluate whether an agent could prevent the growth factor mediated proliferation of smooth muscle within the artery, compound 1436 was evaluated in vitro for its effect on the proliferation of human coronary artery smooth muscle. Results for compound 1436 are shown in FIG. 13, and those for squalamine are shown in FIG. 14, with FIG. 15 being a composite logarithmic plot.

B16 = test: Cytostatic activity against B16 in culture; assay type: cell-based, murine
Xenopus tadpole = details: stage 59-60, 10 μg/ml
[9] = tested on: bacteria, fungi and protozoa; details: background; cited from earlier work
[10] = tested on: human umbilical venous endothelial cells; test: LPS-induced neutrophil adherence to endothelial cells; details: squalamine 10, 1.0 or 0.1 μg; three subjects
Method: To determine if squalamine inhibited this particular endothelial cell function, standard adhesion assays were performed as outlined in Gamble et al., J. Imm. […] In these experiments, approximately 2×10^5 human umbilical venous cells (passage 2-6) were plated per well. The cells were grown in serum-free media overnight. For induction, either TNF-α (40 ng/ml) was added to endothelial cells for 6 hours prior to adding neutrophils or LPS (100 ng/ml) was added for 4-6 hours. […] After activation of the endothelial cells, approximately 50×10^6 neutrophils were added per well. The plates were gently rocked for 30 minutes at room temperature, followed by removal of the media and washing in serum-free media three times and then photographing of each well. Experiments to test the effects of squalamine were performed by adding squalamine at 10 μg, 1.0 μg, or 0.1 μg at the time of adding LPS or TNF-α. A second repeat dose of squalamine was added at the time of adding neutrophils. A monoclonal Ab to ICAM-1 was a positive control.

rabbit NHE3 = rabbit NHE3 (Oryctolagus cuniculus, UniProt P26432); details: 5 μg/ml squalamine; cells not acid-preloaded
Chain of rabbit NHE3 (P26432 30-832): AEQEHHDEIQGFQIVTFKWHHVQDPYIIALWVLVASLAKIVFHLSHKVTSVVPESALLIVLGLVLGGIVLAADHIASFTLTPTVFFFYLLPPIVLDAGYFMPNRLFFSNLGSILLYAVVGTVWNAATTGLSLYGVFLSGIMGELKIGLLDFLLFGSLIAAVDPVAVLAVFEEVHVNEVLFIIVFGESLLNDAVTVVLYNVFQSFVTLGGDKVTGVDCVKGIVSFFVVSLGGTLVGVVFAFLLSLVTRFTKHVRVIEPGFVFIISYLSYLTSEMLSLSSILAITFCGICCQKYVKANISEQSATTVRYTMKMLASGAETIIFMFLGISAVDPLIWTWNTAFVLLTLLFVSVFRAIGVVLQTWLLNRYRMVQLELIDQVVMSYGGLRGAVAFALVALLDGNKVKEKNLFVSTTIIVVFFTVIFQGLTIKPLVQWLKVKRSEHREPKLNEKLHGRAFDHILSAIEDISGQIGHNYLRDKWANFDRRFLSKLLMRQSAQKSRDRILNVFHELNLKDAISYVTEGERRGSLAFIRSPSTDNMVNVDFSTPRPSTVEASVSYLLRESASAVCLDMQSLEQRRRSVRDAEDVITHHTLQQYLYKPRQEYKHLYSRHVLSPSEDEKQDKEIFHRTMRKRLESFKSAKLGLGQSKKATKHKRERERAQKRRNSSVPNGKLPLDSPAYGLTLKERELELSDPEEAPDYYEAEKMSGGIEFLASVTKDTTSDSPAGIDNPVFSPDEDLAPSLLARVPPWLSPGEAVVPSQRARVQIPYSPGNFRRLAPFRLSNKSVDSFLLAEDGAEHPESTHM
Method: For cells not acid-preloaded, the actual internal pH value was monitored as a function of time following addition of squalamine, with the results depicted in FIG. 1B.
PS120 fibroblasts transfected with rabbit NHE3 were grown and acid preloaded by exposure to 40 mM NH4 C1 as described above in conjunction with FIGS. 1A and 1B. Internal cellular pH changes expressed as the rate of pH recovery as a function of restored extracellular sodium ion concentration following exposure to 10 μg/ml of the compound were assayed with the fluorescent dye BCECF-AM as described above.

SMILES: CC(C)[C@@H](CC[C@@H](C)[C@H]1CC[C@H]2[C@@H]3[C@H](O)C[C@H]4C[C@@H](NCCCNCCCCN)CC[C@]4(C)[C@H]3CC[C@]12C)OS(=O)(=O)O [Squalamine, squalamine]
- inhibition of rabbit NHE1 (rabbit NHE1): no inhibitory activity; also recorded: lack of inhibition of rabbit sodium/proton exchanger isoform 1 (NHE1)
- inhibition of human NHE1 (human NHE1): no inhibitory activity; also recorded: lack of inhibition of human NHE1
- growth inhibition [1]: inhibited the growth
- growth inhibition [2]: no effect
- growth inhibition [3]: no effect
- effect on cell viability or proliferation [4]: does not appear to profoundly affect cell viability or proliferation
- Percentage positive, Assay 1 (chorioallantoic membrane; 20 μg applied): 52 Percentage
- Percentage positive, Assay 2 (chorioallantoic membrane; 20 μg applied): 58 Percentage
- Percentage positive, Assay 1 (chorioallantoic membrane; 40 μg applied): 50 Percentage
- Percentage positive, Assay 2 (chorioallantoic membrane; 40 μg applied): 13 Percentage
- Percentage positive (chorioallantoic membrane; 13-day embryo, 5.0 μg applied, positive/total): 0/26
- vascular reactivity (capillary regression) ([5]; 0.001 μg applied): 0
- vascular reactivity (capillary regression) ([5]; 0.01 μg applied): +
- vascular reactivity (capillary regression) ([5]; 0.1 μg applied): +
- vascular reactivity (capillary regression) ([5]; 1 μg applied): +
- vascular reactivity (capillary regression) ([5]; 10 μg applied): +
- effect on chick embryo vessels / blood ([5]; in words): disrupt vitelline capillaries in 3- to 5-day chick embryos
- effect on chick embryo vessels / blood ([5]; in words, listed as squalamine): especially active
- hemorrhage / hemolysis / heartbeat in chick embryo ([5]; in words, listed as squalamine): No hemorrhage was seen; also recorded: absence of hemolysis; also recorded: The embryonic heart continued to beat vigorously
- body weight and hematologic parameters (B16 melanoma; s.c., i.p. or oral squalamine): no significant depression
- effect on B16 tumor volume, single agent and combination (B16 melanoma; squalamine 5 mg/kg/day, compound 1436 10 mg/kg/every 3 days): no significant impact on tumor volume
- suppression of B16 melanoma tumor growth (B16 melanoma; squalamine subcutaneous, intraperitoneal, oral): a dose-dependent suppression of tumor volume; also recorded: suppression of the growth of murine melanoma
- suppression of human melanoma growth (melanoma 1205Lu): suppress the growth of melanoma 1205Lu in RAG-1 mice in a dose-dependent fashion; also recorded: clear suppression of tumor growth in a dose-dependent fashion
- suppression of human melanoma growth (melanoma 1205Lu; listed as squalamine): After cessation of treatment, tumor growth continued at a rate similar to untreated controls
- inhibition of blast transformation [6]: Some effect
- Fasting Blood Glucose Mean ± SEM [7]: 65 ± 7.3 mg/dL
- growth suppression / viability of smooth muscle cells [8]: suppress in vitro the growth of human coronary artery smooth muscle
- cytostatic activity against B16 (B16): minimal cytostatic activity against B16 in culture, except at very high concentrations
- time to death (Xenopus tadpole): ≤ 2 h
- pharmacological response in tadpole (Xenopus tadpole; in words, listed as Compound 1256 (Squalamine)): Vascular occlusion in fine capillaries of tail. No effect on vascular flow through hands or feet.
- antibiotic spectrum [9]: broad-spectrum antibiotic, killing bacteria, fungi and protozoa
- inhibition of neutrophil adherence [10]: no inhibition
- resting internal pH (rabbit NHE3): the resting pH of these cells was also inhibited
